Test in all cases: biochemical
What all share (design): Eurofins DiscoverX kinase panel, competitive binding assay at 1 uM, percent of DMSO control
Common to all, as to conditions: competitive binding, percent of DMSO control

Assay [1] concerns the target T1, FLT3 (Homo sapiens, UniProt P36888).
T1 sequence (P36888 1-993): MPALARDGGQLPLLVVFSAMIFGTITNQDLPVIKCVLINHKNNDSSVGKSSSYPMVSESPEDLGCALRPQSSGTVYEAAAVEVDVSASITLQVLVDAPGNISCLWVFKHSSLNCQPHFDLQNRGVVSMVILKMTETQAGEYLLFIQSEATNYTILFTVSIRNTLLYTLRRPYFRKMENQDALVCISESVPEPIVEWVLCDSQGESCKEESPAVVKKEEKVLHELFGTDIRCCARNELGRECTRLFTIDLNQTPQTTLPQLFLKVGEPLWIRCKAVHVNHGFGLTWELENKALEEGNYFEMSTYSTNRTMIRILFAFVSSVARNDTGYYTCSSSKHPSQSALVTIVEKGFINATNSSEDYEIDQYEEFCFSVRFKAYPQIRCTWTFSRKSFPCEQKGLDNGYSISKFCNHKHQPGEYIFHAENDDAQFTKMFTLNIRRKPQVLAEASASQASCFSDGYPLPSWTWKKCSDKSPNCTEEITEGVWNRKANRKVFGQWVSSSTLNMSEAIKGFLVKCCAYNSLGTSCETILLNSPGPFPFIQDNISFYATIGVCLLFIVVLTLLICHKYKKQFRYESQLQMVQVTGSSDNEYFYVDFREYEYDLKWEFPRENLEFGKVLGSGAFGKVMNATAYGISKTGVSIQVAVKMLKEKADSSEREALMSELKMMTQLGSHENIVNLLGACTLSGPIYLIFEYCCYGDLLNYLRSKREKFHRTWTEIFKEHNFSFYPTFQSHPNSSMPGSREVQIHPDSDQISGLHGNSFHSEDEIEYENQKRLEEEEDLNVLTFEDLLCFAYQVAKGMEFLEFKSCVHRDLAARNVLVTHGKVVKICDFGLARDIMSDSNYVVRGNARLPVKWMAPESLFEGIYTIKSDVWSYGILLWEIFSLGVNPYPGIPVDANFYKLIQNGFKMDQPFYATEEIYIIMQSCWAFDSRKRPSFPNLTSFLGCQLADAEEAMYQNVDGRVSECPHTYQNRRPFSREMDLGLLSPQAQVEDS
In short, it runs like this: (§1)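 Single-point profiling at 1 µM compound in a competition-binding format against 96 kinases, read out as POC relative to control; n = 1.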

The target of assay [2] is T2, CHK1 (Homo sapiens, UniProt O14757).
T2 construct: gene CHEK1
T2 sequence (O14757 1-476): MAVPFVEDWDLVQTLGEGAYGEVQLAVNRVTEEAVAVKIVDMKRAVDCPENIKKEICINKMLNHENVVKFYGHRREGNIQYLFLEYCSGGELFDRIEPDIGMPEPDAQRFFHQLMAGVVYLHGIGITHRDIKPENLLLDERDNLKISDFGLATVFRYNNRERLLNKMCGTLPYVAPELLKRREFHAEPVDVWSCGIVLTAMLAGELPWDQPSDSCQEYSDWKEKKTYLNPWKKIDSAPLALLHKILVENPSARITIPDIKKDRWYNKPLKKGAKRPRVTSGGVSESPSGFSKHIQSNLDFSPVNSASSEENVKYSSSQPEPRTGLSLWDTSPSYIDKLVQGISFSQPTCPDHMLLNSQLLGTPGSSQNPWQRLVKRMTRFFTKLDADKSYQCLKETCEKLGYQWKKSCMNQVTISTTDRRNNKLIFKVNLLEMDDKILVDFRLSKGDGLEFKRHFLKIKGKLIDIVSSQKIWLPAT
The method, boiled down:
as §1

Assay [3] has as its target PIM1 (Homo sapiens, UniProt P11309). The method, boiled down:
as §1

The mark [4] stands for this setting: read-out: Kinome Profiling performed by Eurofins DiscoverX / AM-0277, 1.0 µM / POC.
Where [5] appears, read: read-out: Kinome Profiling performed by Eurofins DiscoverX / AM-1882, 1.0 µM / POC.
[6] abbreviates: read-out: Kinome Profiling performed by Eurofins DiscoverX / AM-5308, 1.0 µM / POC.

Each structure is given as a SMILES string. Read-outs that look alike come from different tables or passages of the source.

Chain of PIM1 (P11309 whole entry): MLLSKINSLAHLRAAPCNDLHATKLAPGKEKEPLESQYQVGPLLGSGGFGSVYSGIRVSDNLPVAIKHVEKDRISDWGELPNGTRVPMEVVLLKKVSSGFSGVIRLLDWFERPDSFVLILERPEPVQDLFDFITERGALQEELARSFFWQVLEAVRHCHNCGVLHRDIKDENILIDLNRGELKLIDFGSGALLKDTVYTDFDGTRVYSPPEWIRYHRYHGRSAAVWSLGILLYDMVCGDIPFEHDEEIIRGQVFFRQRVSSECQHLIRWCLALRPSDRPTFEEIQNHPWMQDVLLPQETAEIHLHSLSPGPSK

For the molecule `CC(C)(CO)Nc1ccc(C(=O)Nc2cccc(S(=O)(=O)C3CCCC3)c2)c(N2CCC3(CC2)CC3)n1` [AM-0277], the remaining activity at 1 µM is 94% in assay [1] (setting [4]), 100% in assay [2] (setting [4]) and 100% in assay [3] (setting [4]).
Turning to `CC(C)(C)NS(=O)(=O)c1cccc(NC(=O)c2ccc(S(=O)(=O)NC(C)(C)C)cc2N2CCC3(CC2)CC3)c1` [AM-1882], the remaining activity at 1 µM in assay [1] (setting [5]) is 88%; in assay [2] (setting [5]), 100%; in assay [3] (setting [5]), 88.5%.
In the case of `C[C@@H]1CN(c2cccc(NC(=O)c3ccc(NS(=O)(=O)CCO)cc3N3CCC4(CC3)CC4)n2)CCO1` [AM-5308], the remaining activity at 1 µM came out at 90.5% in assay [1] (setting [6]), 100% in assay [2] (setting [6]) and 91% in assay [3] (setting [6]).
